In article PMC8267177, “Cyclic Peptoid-Peptide Hybrids as Versatile Molecular Transporters” (Frontiers in Chemistry, 2021):
Entries after “also recorded” stand apart in the source; their conditions may differ. Non-standard residues stand in square brackets, D forms with d. Residues, ends and D or L forms follow the SMILES beside them. *: point of attachment. RhodamineB = CCN(CC)c1ccc2c(-c3ccccc3C(=O)*)c3ccc(=[N+](CC)CC)cc-3oc2c1; Nphe = O=C(O)CNCc1ccccc1; Nlys = NCCCCNCC(=O)O

Tests used:
in vitro = type: cell-based; conditions: human
Protocol: The cytotoxicity of the macrocyclic hybrids 15–24, as well as their conjugates 15-Rhod to 24-Rhod, was examined using a standard MTT assay in human epithelial cervix carcinoma (HeLa) cells. […] ([Mosmann, 1983]; [Tolosa et al., 2015]) After treatment of HeLa cells with different concentrations of the respective macrocycles 15–24 (0.50─50 µM) for 72 h, no significant cytotoxic effects were observed. […] As shown by many research groups that Rhodamine B by itself is not efficiently entering the cells showing therefore an LD50 > 50 μM, we assume that this the toxicity of the Rhodamine moiety might be higher when increasingly localizing in the mitochondria to a higher amount.
In a 96-well plate (Corning® Costar® 3596 96-Well Cell Culture Cluster), 1.0 × 10^4 HeLa-cells per well of a 96 well plate were cultivated for 16 h. Stock solutions of the single compounds in dimethylsulfoxide were diluted to 0.50 µm, 5.00 µm, and 50.0 µm with cell culture medium (DMEM + 10% FBS + 1% P/S) to ensure a final concentration of DMSO below 0.5%. 100 µL of the prepared DMEM diluted compounds were added to each well and the cells were incubated for 72 h. All experiments were performed in triplicates. Cells that were solely treated with the culture medium containing 0.5% of DMSO served as a negative control. After incubation, the positive control (cells in DMSO plus 0.5% DMSO) was treated with 1% Triton-X. To determine the viability of the cells 20 µL of a freshly prepared solution of 3-(4,5-dimethylthiazol-2-yl)-2,5-diphenyltetrazolium bromide (MTT, 2.73 mg/mL, Sigma-Aldrich®) in culture medium were added to each well and incubated at 37 °C for 4 h. The reaction was stopped using 100 µL of Solubilization Solution / Stop Mix (CellTiter 96® Non-Radioactive Cell Proliferation Assay, Promega). After 24 h, the absorption (A) of every well at 595 nm was monitored using a 96-well plate reader (Ultra Microplate Reader ELx808, Biotech Instruments Inc.).

HeLa cells [1] = assay: Localization assay: cellular uptake and organellar localization by confocal microscopy; type: cell-based, human; conditions: 5 µM, 5 h, 37 °C
Protocol: As 15-Rhod to 24-Rhod were not toxic at 5 µM the following transport experiments were carried out using this concentration. To study their cellular uptake and organellar localization, HeLa cells were treated with 5 µM of the cyclic conjugates 15-Rhod to 24-Rhod for 5 h and eventually imaged using confocal microscopy (for experimental details, see supplemental Material).
FIGURE 4 Localization of the macrocyclic conjugates 15-Rhod to 24-Rhod in HeLa cells. After incubation with a 5.0 µM solution of the respective transporters for 5 h, the cellular uptake was monitored via fluorescent confocal microscopy (Rhodamine B labeled hybrids: λ Exc = 532 nm, λ Em = 570–620 nm; MitoTracker® Green: λ Exc = 488 nm, λ Em = 490–540 nm; Hoechst 33,342: λ Exc = 405 nm, λ Em = 430–490 nm). Counterstaining with MitoTracker® Green visualized mitochondria (green). Staining with 2 μg/ml Hoechst 33,342 indicated nuclei (blue). Scale bar: 10 µm.
In an 8-well chamber slide (µ-Slide 8-Well ibidiTreat, ibidi®), 1.0 × 10^4 HeLa cells per well were cultivated for 16 h. The cyclic hybrids were diluted with DMEM to yield a 5 µM concentration. The cells were treated with the hybrids for 5 h at 37 °C. To monitor the intracellular localization, the cells were counterstained with MitoTracker® (Invitrogen) and 2 µg/mL Hoechst 33342. After washing with DPBS (3 ×), the luminescence was monitored via life-cell imaging using a Leica TCS-SPE confocal microscope (DM2500 inverse microscope, 8 Bit resolution, 1024 × 1024 pixels), equipped with a 1 Airy pinhole aperture (111.5 µm), ACS APO 63.0x/1.30 OIL UV and 40x/1.14 OIL UV objectives and the images were processed by the Leica Application Suite (LAS-AF) Version 2.1.2 build 4530 software. Images were taken with a scanning frequency of 400 Hz. Background noise was averaged by an eight-fold repetition of the scan process. The cyclic hybrids were excited at 532 nm, MitoTracker® Green at 488 nm, and Hoechst 33342 at 405 nm. The exposure was set to minimize oversaturated pixels in the final images. Fluorescence emission was measured at 570–620 nm for the detection of rhodamine B labeled hybrids, at 490–540 nm for the detection of mitochondria, and 430–490 nm for the detection of nuclei.

HeLa cells [2] = assay: Cellular uptake at 4 °C and 37 °C (CLSM, Figure S1); type: cell-based, human; conditions: 5 µM, 2 h incubation at 4 °C and 37 °C
Excerpt: The molecular transporters 15-Rhod, 20-Rhod and 22-Rhod are characterized by low cytotoxicity, efficient cellular uptake, and high specificity. Thus, they represent the most promising cyclic hybrids capable of the transport of different cargos into mitochondria. […] The capability of hydrophobic structures to function as molecular transporters is also known for so-called hydrophobic CPPs. However, only a few members of this substance class have been discovered yet. ([Xie et al., 2020]; [Desale et al., 2021]) It is assumed, that hydrophobic CPPs may penetrate cellular membranes in a direct, energy-independent manner dispensing with endocytosis. ([Gao et al., 2002]; [Gao et al., 2011]; [Nakayama et al., 2011]; [Guidotti et al., 2017]; [Tian et al., 2017]) The latter leads to a major challenge as molecular transporters might not escape the endosomes and get degraded instead of reaching their designated targets. […] The efficient internalization at a low temperature led us to the assumption that 22-Rhod might directly penetrate the cell membrane. However, the uptake mechanism of macrocyclic hybrids will be further examined.
Figure S1: Confocal Laser Scanning Microscopy (CLSM) images of HeLa cells after 2 h incubation with 5 µM peptoid 22-Rhod at 4 °C (top line, A) and 37 °C (bottom line, B). […]

cells = conditions: free dye, not efficiently entering the cells; ref many research groups (reference not given); cited from earlier work
Protocol: The cytotoxicity of the macrocyclic hybrids 15–24, as well as their conjugates 15-Rhod to 24-Rhod, was examined using a standard MTT assay in human epithelial cervix carcinoma (HeLa) cells. […] ([Mosmann, 1983]; [Tolosa et al., 2015]) After treatment of HeLa cells with different concentrations of the respective macrocycles 15–24 (0.50─50 µM) for 72 h, no significant cytotoxic effects were observed.

Structure (SMILES) | IC50 at 72 h (in vitro) | Cellular uptake efficiency (HeLa cells [1]; confocal microscopy of Rhodamine B fluorescence (Exc 532 nm, Em 570–620 nm)) | Organellar localization (mitochondria) (HeLa cells [1]; counterstaining with MitoTracker Green, confocal microscopy) | Mitochondrial uptake at 37 °C and at 4 °C (HeLa cells [2]) | LD50 of Rhodamine B by itself (cells)
CCN(CC)c1ccc2c(-c3ccccc3C(=O)NCCCCN3CC(=O)N(Cc4ccccc4)CC(=O)N(Cc4ccccc4)CC(=O)N(Cc4ccccc4)CC(=O)N[C@@H](Cc4ccccc4)C(=O)N[C@@H](Cc4ccccc4)C3=O)c3ccc(=[N+](CC)CC)cc-3oc2c1 [22-Rhod, cyclo-(l-Phe-N1ph-N1ph-N1ph-N4am(Rhod)-l-Phe)] (cyclo(FF[Nlys](RhodamineB)[Nphe][Nphe][Nphe])) | 44 µM | efficiently taken up; also recorded: high cellular uptake efficiency | mitochondrial specificity | occurring at 37 °C as well as at 4 °C | 
CCN(CC)c1ccc2c(-c3ccccc3C(=O)O)c3ccc(=[N+](CC)CC)cc-3oc2c1 [Rhodamine B] |  |  |  |  | > 50 µM
